The target in the first assay is T1, NTCP (Homo sapiens, UniProt Q14973).
T1 sequence (Q14973 1-349): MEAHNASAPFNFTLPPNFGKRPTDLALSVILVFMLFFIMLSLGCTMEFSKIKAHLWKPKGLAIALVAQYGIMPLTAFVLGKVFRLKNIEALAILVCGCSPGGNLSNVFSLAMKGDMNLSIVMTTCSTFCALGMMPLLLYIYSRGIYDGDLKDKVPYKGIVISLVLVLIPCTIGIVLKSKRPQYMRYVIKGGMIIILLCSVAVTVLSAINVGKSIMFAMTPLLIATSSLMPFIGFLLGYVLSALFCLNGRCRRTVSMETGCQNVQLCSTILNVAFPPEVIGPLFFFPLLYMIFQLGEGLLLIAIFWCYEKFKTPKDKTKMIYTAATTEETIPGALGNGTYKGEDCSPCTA
Description: [3H]-TCA uptake assay (NTCP inhibition). It counts as cell-based. The note with it: IC50, given as a range, marked * (asterisk not explained). The protocol: [^3H]-TCA uptake assay. PTH and HepG2-NTCP cells were cultured in PMM for 24 hours to induce NTCP expression. After treated by DMSO or test compounds for 2 hours, the cells were then incubated with 1 μM [^3H]-taurocholate acid dissolved in Na^+ Ringer's buffer (the concentration of Na was 145 mM) for 15 minutes at 37° C. Subsequently, the cells were washed once in phosphate-buffered saline (PBS) and lysed in 50 μL 1% TritonX-100 in H2O for 5 minutes at room temperature. The lysate were totally transferred into a liquid scintillation 96 well plate and mixed with 200 μL liquid scintillation cocktail (Ultima Gold XR, PerkinElmer). Liquid scintillation counting was performed on a PerkinElmer 1450 LSC liquid scintillation counter.
For `CCC1NC(=O)C(C2OC(Oc3cccc(OCc4cccnc4)c3)CC2C)N(C)C(=O)C(C(C)C)N(C)C(=O)C(CC(C)C)N(C)C(=O)C(CC(C)C)N(C)C(=O)C(C)NC(=O)C(C)NC(=O)C(CC(C)C)N(C)C(=O)C(C(C)C)NC(=O)C(CC(C)C)N(C)C(=O)CN(C)C1=O` (centres unmarked) [53A + B(1:1.5)-o], the half-inhibitory concentration (IC50) was in the range of 1000 to 100000 nM.
Same read-out and setting: the figure for `CCC1NC(=O)C(C2OC(Oc3ccccc3)CC2C)N(C)C(=O)C(C(C)C)N(C)C(=O)C(CC(C)C)N(C)C(=O)C(CC(C)C)N(C)C(=O)C(C)NC(=O)C(C)NC(=O)C(CC(C)C)N(C)C(=O)C(C(C)C)NC(=O)C(CC(C)C)N(C)C(=O)CN(C)C1=O` (centres unmarked) [Compound 1B-o] is 1000 to 100000 nM.

The same assay, now with this note: IC50, given as a range; assay not given.
`CCC1NC(=O)C(C2OC(Sc3ccccc3)CC2C)N(C)C(=O)C(C(C)C)N(C)C(=O)C(CC(C)C)N(C)C(=O)C(CC(C)C)N(C)C(=O)C(C)NC(=O)C(C)NC(=O)C(CC(C)C)N(C)C(=O)C(C(C)C)NC(=O)C(CC(C)C)N(C)C(=O)CN(C)C1=O` [Compound 1B, [2-((2R,3R)-3-methyl-5-(phenylthio)tetrahydrofuran-2-yl)-2-(methylamino)acetic acid]^1-cyclosporin A] registered an IC50 of 1000 to 100000 nM.

Still in this assay, the particulars now being: given as a range; assay not given.
On to `CCC1NC(=O)C(C2OC(Oc3cccc(OCc4ccccc4)c3)CC2C)N(C)C(=O)C(C(C)C)N(C)C(=O)C(CC(C)C)N(C)C(=O)C(CC(C)C)N(C)C(=O)C(C)NC(=O)C(C)NC(=O)C(CC(C)C)N(C)C(=O)C(C(C)C)NC(=O)C(CC(C)C)N(C)C(=O)CN(C)C1=O` (single isomer, unassigned) [Compound 12A-o], for which the IC50 was in the range of 1 to 1000 nM.
Same read-out and setting: the figure for `CCC1NC(=O)C(C2OC(Oc3cccc(OCc4ccccc4)c3)CC2C)N(C)C(=O)C(C(C)C)N(C)C(=O)C(CC(C)C)N(C)C(=O)C(CC(C)C)N(C)C(=O)C(C)NC(=O)C(C)NC(=O)C(CC(C)C)N(C)C(=O)C(C(C)C)NC(=O)C(CC(C)C)N(C)C(=O)CN(C)C1=O` (single isomer, unassigned) [Compound 12B-o] is 1 to 1000 nM.
Regarding `CCC1NC(=O)C(C2OC(OC(C)c3ccccc3)CC2C)N(C)C(=O)C(C(C)C)N(C)C(=O)C(CC(C)C)N(C)C(=O)C(CC(C)C)N(C)C(=O)C(C)NC(=O)C(C)NC(=O)C(CC(C)C)N(C)C(=O)C(C(C)C)NC(=O)C(CC(C)C)N(C)C(=O)CN(C)C1=O` (single isomer, unassigned) [Compound 78A], the IC50 lay within 1 to 1000 nM.
For `CCC1NC(=O)C(C2OC(OC(C)c3ccccc3)CC2C)N(C)C(=O)C(C(C)C)N(C)C(=O)C(CC(C)C)N(C)C(=O)C(CC(C)C)N(C)C(=O)C(C)NC(=O)C(C)NC(=O)C(CC(C)C)N(C)C(=O)C(C(C)C)NC(=O)C(CC(C)C)N(C)C(=O)CN(C)C1=O` (single isomer, unassigned) [Compound 78B], the IC50 is 1 to 1000 nM.
Same read-out and setting: the figure for `CCC1NC(=O)C(C2OC(OC(C)c3ccccc3)CC2C)N(C)C(=O)C(C(C)C)N(C)C(=O)C(CC(C)C)N(C)C(=O)C(CC(C)C)N(C)C(=O)C(C)NC(=O)C(C)NC(=O)C(CC(C)C)N(C)C(=O)C(C(C)C)NC(=O)C(CC(C)C)N(C)C(=O)CN(C)C1=O` (single isomer, unassigned) [Compound 79A] is 1 to 1000 nM; for `CCC1NC(=O)C(C2OC(OCc3ccccc3OC)CC2C)N(C)C(=O)C(C(C)C)N(C)C(=O)C(CC(C)C)N(C)C(=O)C(CC(C)C)N(C)C(=O)C(C)NC(=O)C(C)NC(=O)C(CC(C)C)N(C)C(=O)C(C(C)C)NC(=O)C(CC(C)C)N(C)C(=O)CN(C)C1=O` (single isomer, unassigned) [Compound 82A] it is 1 to 1000 nM; for `CCC1NC(=O)C(C2OC(OCc3ccccc3OC)CC2C)N(C)C(=O)C(C(C)C)N(C)C(=O)C(CC(C)C)N(C)C(=O)C(CC(C)C)N(C)C(=O)C(C)NC(=O)C(C)NC(=O)C(CC(C)C)N(C)C(=O)C(C(C)C)NC(=O)C(CC(C)C)N(C)C(=O)CN(C)C1=O` (single isomer, unassigned) [Compound 82B] it is 1 to 1000 nM.
Same read-out and setting: the figure for `CCC1NC(=O)C(C2OC(OCc3cccc(Cl)c3OC)CC2C)N(C)C(=O)C(C(C)C)N(C)C(=O)C(CC(C)C)N(C)C(=O)C(CC(C)C)N(C)C(=O)C(C)NC(=O)C(C)NC(=O)C(CC(C)C)N(C)C(=O)C(C(C)C)NC(=O)C(CC(C)C)N(C)C(=O)CN(C)C1=O` (single isomer, unassigned) [Compound 88A] is 1 to 1000 nM; for `CCC1NC(=O)C(C2OC(OCc3cccc(Cl)c3OC)CC2C)N(C)C(=O)C(C(C)C)N(C)C(=O)C(CC(C)C)N(C)C(=O)C(CC(C)C)N(C)C(=O)C(C)NC(=O)C(C)NC(=O)C(CC(C)C)N(C)C(=O)C(C(C)C)NC(=O)C(CC(C)C)N(C)C(=O)CN(C)C1=O` (single isomer, unassigned) [Compound 88B] it is 1 to 1000 nM.
On the same count and under the same terms, in the case of `CCC1NC(=O)C(C2OC(OCc3ccc(Cl)cc3Cl)CC2C)N(C)C(=O)C(C(C)C)N(C)C(=O)C(CC(C)C)N(C)C(=O)C(CC(C)C)N(C)C(=O)C(C)NC(=O)C(C)NC(=O)C(CC(C)C)N(C)C(=O)C(C(C)C)NC(=O)C(CC(C)C)N(C)C(=O)CN(C)C1=O` (single isomer, unassigned) [Compound 89A] it was 1 to 1000 nM; in that of `CCC1NC(=O)C(C2OC(OCc3ccc(Cl)cc3Cl)CC2C)N(C)C(=O)C(C(C)C)N(C)C(=O)C(CC(C)C)N(C)C(=O)C(CC(C)C)N(C)C(=O)C(C)NC(=O)C(C)NC(=O)C(CC(C)C)N(C)C(=O)C(C(C)C)NC(=O)C(CC(C)C)N(C)C(=O)CN(C)C1=O` (single isomer, unassigned) [Compound 89B], 1 to 1000 nM.
Compound `CCC1NC(=O)C(C2OC(OCc3c(Cl)cccc3Cl)CC2C)N(C)C(=O)C(C(C)C)N(C)C(=O)C(CC(C)C)N(C)C(=O)C(CC(C)C)N(C)C(=O)C(C)NC(=O)C(C)NC(=O)C(CC(C)C)N(C)C(=O)C(C(C)C)NC(=O)C(CC(C)C)N(C)C(=O)CN(C)C1=O` (single isomer, unassigned) [Compound 90A] displayed an IC50 of 1 to 1000 nM.
Same read-out and setting: in the case of `CCC1NC(=O)C(C2OC(OCc3c(Cl)cccc3Cl)CC2C)N(C)C(=O)C(C(C)C)N(C)C(=O)C(CC(C)C)N(C)C(=O)C(CC(C)C)N(C)C(=O)C(C)NC(=O)C(C)NC(=O)C(CC(C)C)N(C)C(=O)C(C(C)C)NC(=O)C(CC(C)C)N(C)C(=O)CN(C)C1=O` (single isomer, unassigned) [Compound 90B] it was 1 to 1000 nM; in that of `CCC1NC(=O)C(C2OC(OC(C)c3ccc(Cl)c(Cl)c3)CC2C)N(C)C(=O)C(C(C)C)N(C)C(=O)C(CC(C)C)N(C)C(=O)C(CC(C)C)N(C)C(=O)C(C)NC(=O)C(C)NC(=O)C(CC(C)C)N(C)C(=O)C(C(C)C)NC(=O)C(CC(C)C)N(C)C(=O)CN(C)C1=O` (single isomer, unassigned) [Compound 96A], 1 to 1000 nM; in that of `CCC1NC(=O)C(C2OC(OC(C)c3ccc(Cl)c(Cl)c3)CC2C)N(C)C(=O)C(C(C)C)N(C)C(=O)C(CC(C)C)N(C)C(=O)C(CC(C)C)N(C)C(=O)C(C)NC(=O)C(C)NC(=O)C(CC(C)C)N(C)C(=O)C(C(C)C)NC(=O)C(CC(C)C)N(C)C(=O)CN(C)C1=O` (single isomer, unassigned) [Compound 97A], 1 to 1000 nM.
Same read-out and setting: in the case of `CCC1NC(=O)C(C2OC(OCc3cc(F)c(Cl)cc3Cl)CC2C)N(C)C(=O)C(C(C)C)N(C)C(=O)C(CC(C)C)N(C)C(=O)C(CC(C)C)N(C)C(=O)C(C)NC(=O)C(C)NC(=O)C(CC(C)C)N(C)C(=O)C(C(C)C)NC(=O)C(CC(C)C)N(C)C(=O)CN(C)C1=O` (single isomer, unassigned) [Compound 101A] it was 1 to 1000 nM; in that of `CCC1NC(=O)C(C2OC(OCc3cc(F)c(Cl)cc3Cl)CC2C)N(C)C(=O)C(C(C)C)N(C)C(=O)C(CC(C)C)N(C)C(=O)C(CC(C)C)N(C)C(=O)C(C)NC(=O)C(C)NC(=O)C(CC(C)C)N(C)C(=O)C(C(C)C)NC(=O)C(CC(C)C)N(C)C(=O)CN(C)C1=O` (single isomer, unassigned) [Compound 101B], 1 to 1000 nM.
Still for that read-out and setting: the figure for `CCC1NC(=O)C(C2OC(OCc3cc(Cl)ccc3Cl)CC2C)N(C)C(=O)C(C(C)C)N(C)C(=O)C(CC(C)C)N(C)C(=O)C(CC(C)C)N(C)C(=O)C(C)NC(=O)C(C)NC(=O)C(CC(C)C)N(C)C(=O)C(C(C)C)NC(=O)C(CC(C)C)N(C)C(=O)CN(C)C1=O` [98A + B(1:1), [2-((2R,3R)-5-(2,5-dichlorobenzyloxy)-3-methyltetrahydrofuran-2-yl)-2-(methylamino)acetic acid]^1-cyclosporin A] is 1 to 1000 nM; for `CCC1NC(=O)C(C2OC(OCc3ccc(N4CCOCC4)cc3)CC2C)N(C)C(=O)C(C(C)C)N(C)C(=O)C(CC(C)C)N(C)C(=O)C(CC(C)C)N(C)C(=O)C(C)NC(=O)C(C)NC(=O)C(CC(C)C)N(C)C(=O)C(C(C)C)NC(=O)C(CC(C)C)N(C)C(=O)CN(C)C1=O` [99A + B(1:1.1), [2-((2R,3R)-3-methyl-5-(4-morpholinobenzyloxy)tetrahydrofuran-2-yl)-2-(methylamino)acetic acid]^1-cyclosporin A] it is 1 to 1000 nM; for `CCC1NC(=O)C(C2OC(Sc3ccc(C)cc3)CC2C)N(C)C(=O)C(C(C)C)N(C)C(=O)C(CC(C)C)N(C)C(=O)C(CC(C)C)N(C)C(=O)C(C)NC(=O)C(C)NC(=O)C(CC(C)C)N(C)C(=O)C(C(C)C)NC(=O)C(CC(C)C)N(C)C(=O)CN(C)C1=O` [Compound 2A, [2-((2R,3R)-3-methyl-5-(p-tolylthio)tetrahydrofuran-2-yl)-2-(methylamino)acetic acid]^1-cyclosporin A] it is 1 to 1000 nM.

Broadly, the IC50 is the concentration needed to halve the response being measured. A low value points to higher potency.

These data come from patent publication US10961231B2, “NTCP inhibitors” (National Institute of Biological Sciences, Beijing, priority 2018, dated 2021).
